{"source": "patent US20100068698A1", "about": "“PRODUCTION OF […] C VIRUS PARTICLES IN CELL CULTURE” (priority 2008, published 2010)", "test_system": "infectious H77S (GT 1a virus)", "experiment": "HCV infectious virus EC50 determination (HCV RNA by quantitative RT-PCR in infected Rof-0c cells)", "format": "cell-based, Hepatitis C virus genotype 1a", "settings": "Hepatitis C virus, GT1A, 72 h, 96-well plate, virus stock grown in human serum, three days post-infection, read-out: potency against infectious H77S (EC50, 50% reduction in HCV RNA)", "experimental": "FIG. 6. Potency of an NS5B inhibitor and HCV entry inhibitor against the GT 1a infectious virus. Rof-0c cells were infected with either H77S or the chimera H77S RO-51-5B. At the time of infection, the cells were treated with a serial dilution of either the NS5B inhibitor HCV-796 or the HCV entry inhibitor JS81. After three days, the intracellular RNA was purified and used to determine the amount of HCV RNA.\nThe presence of HCV RNA was examined after purification of total cellular RNA using the PerfectPure RNA 96 Cell Kit (5 Prime) according to the manufacturer's instructions. To quantitate the amount of HCV RNA, cDNA was amplified using either the Taqman Universal PCR mix (Applied Biosystems) or the TaqMan EZ RT-PCR kit (Applied Biosystems) with a set of primers and probe complementary to a region within the 5′ untranslated region (UTR). The primer and probe sequences are: (HCV 20F) […] (SEQ ID NO:4); (HCV 114R) […] (SEQ ID NO:5); (HCV P43) FAM-[…]-TAMRA (SEQ ID NO:6).\nThe sensitivity of infectious HCV to antivirals was determined using the genotype 1a strains H77S or H77S RO-51-5B. […] Three days post-infection, the HCV RNA was quantified as described above. […]\nPotency of HCV inhibitors against GT1a virus. […] The HCV stocks were analyzed to determine if they would be sufficient to measure the potency of HCV inhibitors. […]"}
{"smiles": "CNC(=O)c1c(-c2ccc(F)cc2)oc2cc(N(CCO)S(C)(=O)=O)c(C3CC3)cc12", "note": "[HCV-796]", "values": [{"measurement": "EC50", "value": "0.032 ± 0.004", "unit": "µM"}]}
